These results are taken from patent US6451293B1, “Combination of erythrulose and a reducing sugar with self-tanning properties” (Pentapharm AG, priority 1997, dated 2002).

Structures are written as SMILES.

Assay [1] has as its system skin. Nature of the assay: time for the skin tan/colour to develop. To be noted: in vivo. Here is the method: The hitherto most frequently used active substance is dihydroxyacetone (hereinafter referred to as “DHA”). The fast tanning active substance (4-7 hours) does, however, have some disadvantages. The skin colour achieved is yellowish-brown, which produces an unnatural colour, particularly in pale skin. In addition, the tan is irregular and soon pales again because the top-most layers of the epidermis are quickly shed. […] This may be attributed to the fact that erythrulose dyes the skin more slowly (the colour takes about 20-24 hours to develop) and less intensively, but instead also penetrates lower layers of the Stratum corneum where it is also able to react with the free amino groups. This not only results in more even tanning, but also in a retarded effect, with the result that the tan lasts longer. Moreover the skin becomes less dried out than, for example, with DHA alone. The synergistic effect, that will subsequently also be shown with reference to examples, of the active substance combination erythrulose/other reducing sugars, such as for example DHA, was not predictable.

The test system of assay [2] is skin. To be noted: known active substance, background statement; cited from earlier work.

As to `O=C(CO)C(O)CO` (racemic) [erythrulose, 1,3,4-trihydroxy-butan-2-one], the “time the colour takes to develop” value in assay [1] was in the range of 20 to 24 h. For `O=C(CO)CO` [DHA, 1,3-dihydroxy-propan-2-one], in assay [2], the time of tanning was 4 to 7 h.
